Source: PubChem BioAssay (NCI)
Values joined by “and” are separate entries in the source; they are usually repeats but may differ in a detail not shown here. Equal values may be shown once.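 Step 1: Grow cells in 96-well plates. Step 2: Expose to compound for 48 hours at 5 concentrations. Step 3: Interpolate endpoints linearly; if unreached, use highest concentration. GI50 = concentration required for 50% inhibition of growth. TGI is the concentration that stops growth completely.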

Key:
Assay in all cases: NCI-60 cell line screen, 48 h
K-562 leukemia = tested on: K-562 leukemia
MOLT-4 leukemia = tested on: MOLT-4 leukemia
NCI-H522 lung = tested on: NCI-H522 lung
M19-MEL melanoma = tested on: M19-MEL melanoma
ACHN renal = tested on: ACHN renal
UO-31 renal = tested on: UO-31 renal
HCT-15 colon = tested on: HCT-15 colon
HOP-62 NSCLC = tested on: HOP-62 NSCLC
SK-MEL-28 melanoma = tested on: SK-MEL-28 melanoma
KM20L2 colon = tested on: KM20L2 colon

Row | Structure (SMILES) | TGI (K-562 leukemia) | TGI (MOLT-4 leukemia) | TGI (NCI-H522 lung) | TGI (M19-MEL melanoma) [µM] | TGI (ACHN renal) | TGI (UO-31 renal) | TGI (HCT-15 colon) | TGI (HOP-62 NSCLC) | TGI (SK-MEL-28 melanoma) | TGI (KM20L2 colon) [µM] | GI50 (K-562 leukemia) | GI50 (MOLT-4 leukemia) | GI50 (NCI-H522 lung) | GI50 (M19-MEL melanoma) [µM] | GI50 (ACHN renal) | GI50 (UO-31 renal) | GI50 (HCT-15 colon) | GI50 (HOP-62 NSCLC) [nM] | GI50 (SK-MEL-28 melanoma) | GI50 (KM20L2 colon) [nM]
1 | CCOC(=O)C(=O)N=Nc1nc2c(O)c3ccccc3c(O)c2s1 | 12.7 µM | > 100 µM | 8.79 µM | 1.27 | 6.74 µM | 6.12 µM | 6.49 µM | 24.7 µM | 6.38 µM | 32.1 |  |  |  |  |  |  |  |  |  | 
2 | CC1=C(c2cc(C(=O)Nc3ccc(Cl)c(Cl)c3)nc(N)n2)Sc2ccccc2N1 | > 100 µM | > 100 µM | > 100 µM | > 100 | > 100 µM | > 100 µM | > 100 µM | > 100 µM | > 100 µM | > 100 |  |  |  |  |  |  |  |  |  | 
3 | CC[O-].Cc1ccc2cccc([O-])c2n1.Cc1ccc2cccc([O-])c2n1.Cc1ccc2cccc([O-])c2n1.[Ti+4] | 52.2 µM | 35.8 µM | 30.4 µM | 27.7 | > 100 µM | > 100 µM | > 100 µM | > 100 µM | > 100 µM | > 100 | 11.7 µM | 6070 nM | 14 µM | 14 | 50300 nM | > 100000 nM | 42400 nM | 53600 | > 65.2 µM | > 54200
4 | C=C1Oc2nc3ccccc3c(=O)n2C1(C)C | > 100 µM | > 100 µM | > 100 µM | > 100 | > 100 µM | > 100 µM | > 100 µM | > 100 µM | > 100 µM | > 100 |  |  |  |  |  |  |  |  |  | 
5 | O=C(O)CCC1(Br)CCCCC(Br)C1=O (configuration not stated) | > 100 µM | > 100 µM | > 100 µM | > 100 | > 100 µM |  | > 100 µM | > 100 µM | > 100 µM | > 100 |  |  |  |  |  |  |  |  |  | 
6 | CN(c1ccccc1)C1C(=O)N(c2ccccc2)C1/C=C/c1ccccc1 (configuration not stated) |  | > 100 µM | > 100 µM | > 100 | > 100 µM | > 100 µM |  |  | > 100 µM |  |  |  |  |  |  |  |  |  |  | 
7 | O=C(O)C#CCO | > 100 µM | > 100 µM | > 100 µM | > 100 | > 100 µM | > 100 µM | > 100 µM | > 100 µM | > 100 µM |  |  |  |  |  |  |  |  |  |  | 
8 | O=c1c2ccccc2c(=O)c2c1cc(Cl)c1[nH]c3c([nH]c12)c(Cl)cc1c(=O)c2ccccc2c(=O)c13 | > 100 µM | > 100 µM | > 100 µM | > 100 | > 100 µM | > 100 µM | > 100 µM | > 100 µM | > 100 µM | > 100 |  |  |  |  |  |  |  |  |  | 
9 | O=C(O)C1c2ccccc2C(C(=O)O)c2ccccc21 (configuration not stated) | > 100 µM | > 100 µM | > 100 µM | > 100 | > 100 µM | > 100 µM | > 100 µM | > 100 µM |  | > 100 |  |  |  |  |  |  |  |  |  | 
10 | Cc1cc(C(=O)N2CCN(Cc3ccccc3)CC2)c(C)o1 | > 100 µM | > 100 µM | > 100 µM | > 100 | > 100 µM | > 100 µM | > 100 µM | > 100 µM | > 100 µM | > 100 |  |  |  |  |  |  |  |  |  | 
11 | COc1cccc(NC(=O)CC(=O)N2NC(C)C(N=Nc3cccc(C(=O)O)c3)C2=O)c1 (configuration not stated) | > 100 µM | > 100 µM | > 100 µM | > 100 | > 100 µM | > 100 µM |  | > 100 µM | > 100 µM | > 100 |  |  |  |  |  |  |  |  |  | 
12 | CCC[CH2][Sn]([CH2]CCC)([O]C(=O)c1nccnc1N)[O]C(=O)c1nccnc1N |  | 1.1 µM | 0.18 µM | 1.49 | 2.19 µM | 2.77 µM | 2.37 µM | 3.57 µM | 2.04 µM | 2.95 |  | 257 nM | 0.052 µM |  | 1020 nM | 1450 nM | 1150 nM | 2120 | 0.769 µM | 1590
13 | O=C1/C(=C/c2ccccc2)CCC/C1=C\c1ccccc1 | 36.5 µM and 32.9 µM and > 100 µM | 36.5 µM and 71.1 µM and 70.2 µM | 11.8 µM and 31.8 µM and 35 µM | 6.98 | 12.1 µM and 29.2 µM and 26.2 µM | 11 µM and 32.3 µM and 28 µM | 11.9 µM and 31.7 µM and 43.8 µM | 13.6 µM and 40 µM and 41.1 µM | 12.3 µM and 32.7 µM and 38.2 µM | 22.2 | 20.3 µM and 4.56 µM | 15100 nM and 11100 nM | 6.46 µM and 13.7 µM and 15.7 µM |  | 6720 nM and 9220 nM | 6040 nM and 12500 nM | 5910 nM and 6430 nM | 7640 | 6.84 µM and 18.9 µM | 
14 | Clc1ccc(OC2CCO2)cc1Cl (configuration not stated) | > 100 µM | > 100 µM | > 100 µM | > 100 | > 100 µM | > 100 µM | 36.8 µM | > 100 µM | > 100 µM | > 100 |  |  |  |  |  |  |  |  |  | 
15 | C/C(=N/NC(=O)C(N)=O)C(CC(C(=O)Nc1ccccc1C)/C(C)=N\NC(=O)C(N)=O)C(=O)Nc1ccccc1C (configuration not stated) | > 100 µM | > 100 µM | > 100 µM | > 100 | > 100 µM | > 100 µM |  | > 100 µM | > 100 µM | > 100 |  |  |  |  |  |  |  |  |  | 
16 | Cc1cc(NS(=O)(=O)c2ccc(NC(=O)c3cccc4c(Nc5ccc(S(=O)(=O)Nc6cc(C)on6)cc5)c5ccccc5nc34)cc2)no1 | > 100 µM | 95.4 µM | 51.7 µM | > 100 | > 100 µM | > 100 µM | > 100 µM | > 100 µM | > 100 µM | > 100 |  |  |  |  |  |  |  |  |  | 
17 | N#CCC(=O)N/N=C1\C(=O)N(c2ccc(Cl)cc2)C(=O)C(=O)C1c1nc2ccccc2o1 (configuration not stated) |  | > 100 µM | > 100 µM | > 100 | > 100 µM | > 100 µM | > 100 µM | > 100 µM | > 100 µM | > 100 |  |  |  |  |  |  |  |  |  | 
18 | CC(=O)OC1C(CCl)OC(N=[N+]=[N-])C(OC(C)=O)C1OC(C)=O (configuration not stated) | > 100 µM | > 100 µM | > 100 µM | > 100 | > 100 µM | > 100 µM | > 100 µM | > 100 µM | > 100 µM | > 100 |  |  |  |  |  |  |  |  |  | 
19 | CC(C)(C)[Si](C)(C)O/N=C\c1ccc(O[Si](C)(C)C(C)(C)C)cc1 | > 100 µM | > 100 µM |  | > 100 | > 100 µM | > 100 µM | > 100 µM | > 100 µM |  | > 100 |  |  |  |  |  |  |  |  |  | 
20 | C[C@H]1CC(=O)C2=CCCC3(SCCCS3)[C@@H]2[C@H]1CO | > 100 µM | > 100 µM | > 100 µM | > 100 | > 100 µM | > 100 µM |  | > 100 µM | > 100 µM |  |  |  |  |  |  |  |  |  |  | 
21 | COc1cc2cc[n+]3c4cc(OC)c(OC)cc4c(C)cc3c2cc1OC | > 100 µM | > 100 µM | > 100 µM | > 100 | > 100 µM | > 100 µM | > 100 µM | > 100 µM | > 100 µM | > 100 |  |  |  |  |  |  |  |  |  | 
22 | Cc1cc(C)cc(Sc2c([N+](=O)[O-])ncn2C)c1 | > 100 µM | 38.2 µM | 20 µM | 84.1 | > 100 µM | 85.9 µM |  | > 100 µM | 30 µM | > 100 |  |  |  |  |  |  |  |  |  | 
23 | CCCCN(CCCC)CCCN=c1nc2c(c(N)n1-c1ccccc1)c(=S)n(-c1ccccc1)c(=S)n2-c1ccccc1 | > 100 µM | > 34.1 µM | 2.23 µM |  | 1.8 µM | 1.02 µM | 1.14 µM | 3.03 µM | 0.338 µM |  | 0.54 µM | 141 nM | 0.664 µM |  | 567 nM | 389 nM | 309 nM | 1450 | 0.173 µM | 
24 | Cc1nc(/N=C(\N)NC(=O)Nc2ccccc2Cl)sc1C | > 100 µM | > 100 µM |  |  | 7.79 µM | 6.49 µM | > 100 µM | 2.84 µM | > 100 µM |  | 0.0861 µM | 492 nM | 0.189 µM |  | 638 nM | 857 nM | 250 nM | 505 | 0.916 µM | 
25 | N#Cc1c(NC(=O)CN2CCOCC2)sc2c1CCCC2 | > 25 µM | > 25 µM | > 25 µM |  | > 25 µM | > 25 µM | > 25 µM | > 25 µM | > 25 µM |  | > 25 µM | > 25000 nM | > 25 µM |  | > 25000 nM | > 25000 nM | > 25000 nM | > 25000 | > 25 µM | 
26 | COc1ccc(Cc2cnc(NC(=O)c3sc4ccccc4c3Cl)s2)cc1 | > 100 µM | > 100 µM |  |  | > 100 µM | > 100 µM | > 100 µM | > 100 µM | > 100 µM |  | 0.289 µM | 484 nM | 0.279 µM |  | 808 nM | 843 nM | 378 nM | 513 | 3.84 µM | 
